Experiment [1] concerns cytosolic calcium ions concentration in cells. The experiment can be described thus: Histamine-induced calcium streams in SK-N-SH cells, Phase 2 (acceleration of cytosolic calcium removal). The note with it: Homo sapiens, Phase 2: acceleration of intraplasmatic calcium removal, histamine 10 μM, read-out: pIC50 Phase 2 (converted). The experiment is classed as cell-based. As to the method:
(§1) Tests of biological activity of compounds of general formula 1. In order to determine a physiological activity of the proposed compounds a focused library was compiled to include compounds of general formula 1, some of which are shown in Table 2 below. The compounds were tested as potential histamine H1 receptor antagonists, and their ability to regulate cytosolic calcium ions concentration in cells by blocking calcium channels regulated by intracellular calcium repositories was determined. Cells SK-N-SH (ATCC, USA) were grown on DMEM medium (Invitrogen, USA), containing 10% fetal calf serum (FBS) and antibiotic penicillin-streptomycin in CO2 incubator (5% CO2) until cell density was 1*10^5 cells/cm^2. The cells were removed from flask surface by reagent TrypLE Express (Invitrogen, USA), collected by centrifugation and resuspended in medium Hybridoma Serum Free Medium (HSFM, Sigma, USA) in concentration of 4*10^6 cells/ml. For measurement of cytosolic calcium concentration the cells were loaded with calcium sensitive fluorescent dye Fura 2 AM (Invitrogen, USA) by means of hatching of cells with a dye in suspension for 30 minutes at room temperature. The cells were collected by centrifugation, resuspended in HSFM, incubated in suspension for 15 minutes, collected by centrifugation, washed twice in HSFM and resuspended in HSFM in concentration of 4*10^6 cells/ml.
(§2) Registration of calcium streams in cells was carried out using spectrofluorometer Shimadzu-RF5301PC. The cells were diluted with buffer (NaCl 0.145 M, KCl 0.0054 M, NaH2PO4 0.001 M, MgSO4 0.0008 M, CaCl2 0.0018 M, HEPES 0.03 M, D-glucose 0.0112 M pH 7.4) till concentration 1*10^5 cells/ml in measuring cuvette provided with magnetic stirrer, and fluorescence was registered using a regime of two-wave excitement (340 and 380 nm, respectively) at wavelength of emission 510 nm (F1 and F2, respectively). In 20 seconds after beginning of registration 10 mM of histamine water solution was added (final concentration is 10 μM). In another 30 seconds, after achievement of calcium cytosolic concentration peak a solution of tested compound in DMSO was added and registration was continued for 3 minutes. Serial dilutions of the compounds in dimethylsulfoxide (DMSO) were prepared for determination of their biological activity, and the effect of the concentration of compound on the calcium streams induced by histamine was determined.
(§3) Transformation of fluorescence signal into calcium concentration was carried out by means of equation imbedded in program Super Ion Probe (Shimadzu), for which maximum of free calcium concentration by addition of digitonin (Sigma, USA) up to concentration of 0.1 mg/ml and zero calcium concentration by addition of ethylenediamine-tetraacetate (EDTA) up to concentration of 10 mM were determined. Kinetic curves of cytosolic calcium decrease after addition of tested compound compared to concentration after addition of histamine were calculated using single-phase exponential model by means of Prism 4 (GraphPad Software, Inc.) program:
[Ca]=[Ca]max*exp(−K*T)+[Ca]min,
wherein T means time after addition of tested compound, [Ca]max and [Ca]min correspond to maximum (peak meaning after addition of histamine) and minimum (equilibrium level to which the curve converges after addition of tested compound) concentrations of cytosolic calcium, and K means a kinetic constant of the decrease of cytosolic calcium concentration which is calculated by minimization of the least squares of deviations.
The dependence of calculated constants of calcium decreasing (K) on the concentration of tested compound (C) was drawn up, and using this dependence by means of program Prism 4 the value of EC50 (concentration of tested compound corresponding to half-maximum increase of a kinetic constant of cytozoic calcium concentration decrease) was defined using four parametrical equation. […]

The next experiment addresses T1, histamine H1 receptor (Homo sapiens, UniProt P35367).
T1 construct: host or cells: SK-N-SH
The experiment in a line: Histamine-induced calcium streams in SK-N-SH cells, Phase 1 (H1 receptor antagonism). Type of experiment: cell-based. To be noted: Phase 1: compounds prevent calcium ions entry in cells by antagonistic action on H1-receptors, histamine 10 μM, read-out: pIC50 Phase 1 (converted). The procedure: as §1, §2
as §3, with “program: […]” for “program:”
In Table 2 below the values corresponding to the reciprocal logarithm of EC50(−LogEC50=pEC50) for some of tested compounds of general formula 1 used as measures of these compounds activity are presented.

T1 sequence (P35367 whole entry): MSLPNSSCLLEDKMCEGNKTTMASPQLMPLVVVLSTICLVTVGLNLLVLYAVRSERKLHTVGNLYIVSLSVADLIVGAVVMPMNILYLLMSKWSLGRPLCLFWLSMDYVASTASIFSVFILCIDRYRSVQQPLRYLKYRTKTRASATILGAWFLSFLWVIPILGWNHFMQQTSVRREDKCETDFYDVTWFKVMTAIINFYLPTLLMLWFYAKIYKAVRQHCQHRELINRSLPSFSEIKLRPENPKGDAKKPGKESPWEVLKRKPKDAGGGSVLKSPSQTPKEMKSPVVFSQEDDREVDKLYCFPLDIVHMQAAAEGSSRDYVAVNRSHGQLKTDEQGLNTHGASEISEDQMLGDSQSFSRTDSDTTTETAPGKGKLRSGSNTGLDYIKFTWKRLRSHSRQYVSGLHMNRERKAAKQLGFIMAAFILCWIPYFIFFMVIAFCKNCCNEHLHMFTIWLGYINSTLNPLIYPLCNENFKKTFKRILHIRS

For `Cc1ccc2c(c1)c1c(n2CCc2ccncc2)CCCN(C)C1` [1.1.5(3), 2,9-dimethyl-6-[2-(pyridin-4-yl)ethyl]-1,2,3,4,5,6-hexahydroazepino[4,3-b]indole], the IC50 in experiment [1] is 1260 nM; at histamine H1 receptor, 200 nM.

`Cc1ccc2c(c1)[C@@H]1CN(C)CCC[C@H]1N2Cc1ccccn1` (relative stereo) [1.2.6(4), trans-2,9-dimethyl-6-(pyridin-2-ylmethyl)-1,2,3,4,5,5a,6,10b-octahydroazepino[4,3-b]indole]: the values for the IC50 (in experiment [1]; on histamine H1 receptor) were 1580 nM and 631 nM, respectively.

Regarding `Cc1ccc2c(c1)[C@@H]1CN(C)CCC[C@H]1N2Cc1ccncc1` (relative stereo) [1.2.6(6), trans-2,9-dimethyl-6-(pyridin-4-ylmethyl)-1,2,3,4,5,5a,6,10b-octahydroazepino[4,3-b]indole], the IC50 in experiment [1] was 5010 nM; on histamine H1 receptor, 200 nM.

Take `Cc1ccc2c(c1)[C@@H]1CN(C)CCC[C@H]1N2CCc1ccccc1` (relative stereo) [1.2.6(3), trans-2,9-dimethyl-6-phenethyl-1,2,3,4,5,5a,6,10b-octahydroazepino[4,3-b]indole]: the IC50 in experiment [1] was 2000 nM; on histamine H1 receptor it was 158 nM.

For `CN1CCC[C@@H]2[C@@H](C1)c1cc(-c3ccncc3)ccc1N2CCc1cccnc1` (relative stereo) [1.2.5(6), trans-2-methyl-6-[2-(pyridin-3-yl)ethyl]-9-(pyridin-4-yl)-1,2,3,4,5,5a,6,10b-octahydroazepino[4,3-b]indole], the figures for the IC50 (in experiment [1]; at histamine H1 receptor) were 1000 nM and 251 nM, respectively.

Turning to `Cc1ccc2c(c1)c1c(n2CCc2cccnc2)CCCN(C)C1` [1.1.5(5)], the IC50 in experiment [1] was 3160 nM; on histamine H1 receptor, 501 nM.

In the case of `Cc1ccc2c(c1)[C@@H]1CN(C)CCC[C@H]1N2CCc1ccccn1` (relative stereo) [1.2.5(1), trans-2,9-dimethyl-6-[2-(pyridin-2-yl)ethyl]-1,2,3,4,5,5a,6,10b-octahydroazepino[4,3-b]indole], the IC50 was 2510 nM in experiment [1] and 1000 nM on histamine H1 receptor.

With `Cc1ccc2c(c1)c1c(n2CCc2ccccn2)CCCN(C)C1` [1.1.5(1), 2,9-dimethyl-6-[2-(pyridin-2-yl)ethyl]-1,2,3,4,5,6-hexahydroazepino[4,3-b]indole], the IC50 (in experiment [1]; at histamine H1 receptor) was 3160 nM throughout.

On to `Cc1ccc2c(c1)[C@@H]1CN(C)CCC[C@H]1N2Cc1cccnc1` (relative stereo) [1.2.6(5), trans-2,9-dimethyl-6-(pyridin-3-ylmethyl)-1,2,3,4,5,5a,6,10b-octahydroazepino[4,3-b]indole], for which the IC50 in experiment [1] is 1580 nM; on histamine H1 receptor it was 100 nM.

For `Cc1ccc2c(c1)[C@@H]1CN(C)CCC[C@H]1N2Cc1ccccc1` (relative stereo) [1.2.6(1), trans-6-benzyl-2,9-dimethyl-1,2,3,4,5,5a,6,10b-octahydroazepino[4,3-b]indole], the figures for the IC50 (in experiment [1]; on histamine H1 receptor) were 631 nM and 126 nM, respectively.

For the compound `Cc1ccc2c(c1)[C@@H]1CN(C)CCC[C@H]1N2C(=O)c1ccccc1` (relative stereo) [1.2.7(3), trans-6-benzoyl-2,9-dim ethyl-1,2,3,4,5,5a,6,10b-octahydroazepino[4,3-b]indole], the IC50 (in experiment [1]; at histamine H1 receptor) was greater than 100000 nM throughout.

Regarding `Cc1ccc2c(c1)[C@@H]1CN(C)CCC[C@H]1N2Cc1ccc(C(=O)O)cc1` (relative stereo) [1.2.6(2), trans-4-(2,9-dimethyl-1,2,3,4,5,5a,10b-octahydroazepino[4,3-b]indol-6-ylmethyl)benzoic acid], the IC50 (in experiment [1]; on histamine H1 receptor) was greater than 100000 nM in each case.

On to `Cc1ccc2[nH]c3c(c2c1)CN(C(=O)c1ccccc1)CCC3` [1.1.3.4(1), 2-benzoyl-9-methyl-1,2,3,4,5,6-hexahydroazepino[4,3-b]indole], for which the IC50 (in experiment [1]; at histamine H1 receptor) was greater than 100000 nM throughout.

With `Cc1ccc2c(c1)[C@@H]1CN(C)CCC[C@H]1N2CCc1ccc(C)nc1` (relative stereo) [1.2.5(2), trans-2,9-dimethyl-6-[2-(6-methylpyridin-3-yl)ethyl]-1,2,3,4,5,5a,6,10b-octahydroazepino[4,3-b]indole], the results for the IC50 (in experiment [1]; on histamine H1 receptor) were 1000 nM and 251 nM, respectively.

Regarding `Cc1ccc2c(c1)[C@@H]1CN(C)CCC[C@H]1N2CCc1cccnc1` (relative stereo) [1.2.5(4), trans-2,9-dimethyl-6-[2-(pyridin-3-yl)ethyl]-1,2,3,4,5,5a,6,10b-octahydroazepino[4,3-b]indole], the IC50 in experiment [1] was 2510 nM; at histamine H1 receptor, 158 nM.

As to `Cc1ccc2c(c1)c1c(n2CCc2ccc(C)nc2)CCCN(C)C1` [1.1.5(2), 2,9-dimethyl-6-[2-(6-methylpyridin-3-yl)ethyl]-1,2,3,4,5,6-hexahydroazepino[4,3-b]indole], the IC50 in experiment [1] is 1580 nM; on histamine H1 receptor, 316 nM.

For `Cc1ccc2[nH]c3c(c2c1)CN(S(=O)(=O)c1ccccc1)CCC3` [1.1.3.6(1), 2-phenylsulfonyl-9-methyl-1,2,3,4,5,6-hexahydroazepino[4,3-b]indole], the IC50 (in experiment [1]; at histamine H1 receptor) was greater than 100000 nM in each case.

As to `Cc1ccc2c(c1)[C@@H]1CN(C)CCC[C@H]1N2CCc1ccncc1` (relative stereo) [1.2.5(3), trans-2,9-dimethyl-6-[2-(pyridin-4-yl)ethyl]-1,2,3,4,5,5a,6,10b-octahydroazepino[4,3-b]indole], the IC50 in experiment [1] was 1000 nM; on histamine H1 receptor, 158 nM.

In the case of `CC(=O)N1c2ccc(C)cc2[C@@H]2CN(C)CCC[C@H]21` (relative stereo) [1.2.7(4), trans-6-acetyl-2,9-dimethyl-1,2,3,4,5,5a,6,10b-octahydroazepino[4,3-b]indole], the IC50 (in experiment [1]; at histamine H1 receptor) was greater than 100000 nM each time.

With `Cc1ccc2[nH]c3c(c2c1)CN(C)CCC3` [1.1.3.3(1), 2,9-dimethyl-1,2,3,4,5,6-hexahydroazepino[4,3-b]indole], the IC50 (in experiment [1]; on histamine H1 receptor) was greater than 100000 nM in each case.

On to `CN1CCC[C@@H]2[C@@H](C1)c1cc(F)ccc1N2CCc1cccnc1` (relative stereo) [1.2.5(5), trans-2-methyl-6-[2-(pyridin-3-yl)ethyl]-9-fluoro-1,2,3,4,5,5a,6,10b-octahydroazepino[4,3-b]indole], for which the IC50 is 631 nM in experiment [1] and 126 nM on histamine H1 receptor.

`Cc1ccc2[nH]c3c(c2c1)CN(C(=O)Nc1ccccc1)CCC3` [1.1.3.5(1), 2-phenylcarbamoyl-9-methyl-1,2,3,4,5,6-hexahydroazepino[4,3-b]indole]: the IC50 (in experiment [1]; at histamine H1 receptor) was greater than 100000 nM each time.

These data come from US20120040965A1, “SUBSTITUTED AZEPINO[4,3-B]INDOLES, PHARMACOLOGICAL COMPOSITION AND A METHOD FOR THE PRODUCTION AND USE THEREOF” (priority 2006, published 2012).
